# Molecular target: T1, PDE10A2 (Homo sapiens, UniProt Q9Y233)
# T1 construct: residues serine 449 to aspartate 789; His6 (H6) with Gateway linker and thrombin cleavage site (N, cleaved yes); made in house; host or cells: E. coli BL21(DE3) pLysS
# Assay: PDE10A2 inhibition, Scintillation Proximity Assay (SPA)
# Assay type: biochemical
# Settings: catalytic domain of human PDE10A2 (S449-D789), 0.25 nM enzyme, 50 nM cGMP and 50 nM [3H]-cGMP, 30 minutes at room temperature
# Procedure: The following tests were carried out in order to determine the activity of the compounds of the present invention. PDE10 activity of the compounds of the present invention is determined using a Scintillation Proximity Assay (SPA)-based method similar to the one previously described (Fawcett, L. et al., Proc Natl Acad Sci USA (2000) 97(7):3702-3707). PDE10A1 and PDE10A2 are two splice variants of PDE10A. There are these 2 splice variants known, which differ in the N-terminal part of the protein. The catalytic domains of PDE10A1 and PDE10A2 are identical. The assay for PDE10A2 described below is therefore also representative for PDE10A1 and also for PDE10A in general. The PDE10A2 assay was performed in a two step procedure in 96-well micro titer plates. […] A range of concentrations of the potential inhibitor was used to generate data for calculating the concentration of inhibitor resulting in 50% of the effect (e.g. IC50, the concentration of the competitor inhibiting PDE10A2 activity 50%). Non-specific activity was tested without the enzyme. The reaction was initiated by addition of the substrate solution (cGMP and [^3H]-cGMP) and allowed to progress for 30 minutes at room temperature. The reaction was terminated by transferring 50 μl of the reaction mixture into an OptiPlate (Perkin Elmer) containing 25 μl of YSi-SPA scintillation beads (GE Healthcare) in 18 mM zinc sulphate solution (stop reagent). After 1 h under shaking, the plate was centrifuged one minute at 1000 rpm to allow beads to settle. Afterwards, radioactive counts were measured on a Perkin Elmer TopCount Scintillation plate reader. The catalytic domain of human PDE10[…], was amplified by PCR using cDNA (Origene) and the oligonucleotides 5'-[…]00001:character} […] no. 1) (with AttB1 recombination site in bold and thrombin protease cleavage site in […] no. 2) (with AttB2 recombination site in bold) which conferred Gateway recombination sites. The PCR product was used in a BP recombination reaction with pDONR221 to generate […]([…]-[…]) which was DNA sequence verified and then used in an LR recombination reaction with a Gateway modified version of pET11a. […] About 30% of the protein was in the soluble fraction of the cell homogenate. The protein was purified using sequential chromatography on Ni-NTA and […]. After thrombin digest at room temperature a […]/HiTrap Benzamindin chromatography removed impurities, uncleaved protein and thrombin. Final purification of PDE10A2([…]-[…]) was performed on a Superdex 75 size exclusion chromatography equilibrated with 25 mM HEPES pH 8.4, 0.15 M NaCl. The yield of pure protein was 2 mg/liter of culture volume is relatively low. The purity of the protein was >95%, monomeric and monodisperse as shown by SDS-PAGE, HPLC and analytical ultracentrifugation.
# T1 sequence (Q9Y233 715-1055): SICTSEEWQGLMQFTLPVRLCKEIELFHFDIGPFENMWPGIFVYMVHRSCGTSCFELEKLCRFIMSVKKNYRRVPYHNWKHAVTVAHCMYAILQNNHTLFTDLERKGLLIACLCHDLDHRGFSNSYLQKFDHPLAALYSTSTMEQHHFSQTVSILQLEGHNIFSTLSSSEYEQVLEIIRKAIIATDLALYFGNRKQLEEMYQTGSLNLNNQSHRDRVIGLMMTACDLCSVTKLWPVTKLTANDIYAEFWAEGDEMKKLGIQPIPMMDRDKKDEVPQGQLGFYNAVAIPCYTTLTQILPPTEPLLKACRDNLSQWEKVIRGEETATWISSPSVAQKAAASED
row,Structure (SMILES),IC50 [nM]
1,"Cn1ncc(C(=O)N2CCOCC2CO)c1C(=O)Nc1ccn2cc(-c3ccccc3)nc2c1 (centres unmarked) [Example 53, 4-(3-Hydroxymethyl-morpholine-4-carbonyl)-2-methyl-2H-pyrazole-3-carboxylic acid (2-phenyl-imidazo[1,2-a]pyridin-7-yl)-amide]",3.3
2,"CCOC(=O)c1cn[nH]c1C(=O)Nc1ccn2cc(-c3ccccc3)nc2c1 [Example 11, 5-(2-Phenyl-imidazo[1,2-a]pyridin-7-ylcarbamoyl)-1H-pyrazole-4-carboxylic acid ethyl ester]",10.7
3,"Cn1ncc(C(=O)NC(C)(C)C)c1C(=O)Nc1ccn2cc(-c3ccccc3)nc2c1 [Example 24, 2-Methyl-2H-pyrazole-3,4-dicarboxylic acid 4-tert-butylamide 3-[(2-phenyl-imidazo[1,2-a]pyridin-7-yl)-amide]]",2.3

# These reach a lower IC50. Values come first.
row,IC50 [nM],Structure (SMILES)
1,< 0.1,"Cn1ncc(C(=O)N2CCC2)c1C(=O)Nc1ccn2cc(-c3ccccc3)nc2c1 [Example 26, 4-(Azetidine-1-carbonyl)-2-methyl-2H-pyrazole-3-carboxylic acid (2-phenyl-imidazo[1,2-a]pyridin-7-yl)-amide]"
2,0.3,"Cn1ncc(C(=O)N2CCC2)c1C(=O)Nc1cc2nc(-c3ccccc3)cn2cn1 [Example 86, 4-(Azetidine-1-carbonyl)-2-methyl-2H-pyrazole-3-carboxylic acid (2-phenyl-imidazo[1,2-c]pyrimidin-7-yl)-amide]"

# From US8263584B2, “Imidazopyridines” (Hoffmann-La Roche Inc., priority 2009, dated 2012)
